Values joined by “and” are separate entries in the source; they are usually repeats but may differ in a detail not shown here. Identical values can stand only once. Inconclusive results and toxic doses are left out. The calls were made as follows: active = survival T/C of 150% or more; inactive = T/C below 125% in these data. Peptide text beside a SMILES is read from it. * marks the point of attachment. Boc = CC(C)(C)OC(=O)*; NHNH2 = NN*
Test system: P388 leukemia ip, CD2F1 mice, survival T/C
Experiment: NCI In Vivo Anticancer Drug Screen. Data for tumor model P388 Leukemia (intraperitoneal) in CD2F1 (CDF1) mice
Settings: endpoint: median survival time, higher = longer survival
In short: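 Mice carrying the transplanted tumor received test compound or vehicle. Survival was recorded in each group, and the value is the treated-group measurement divided by that of the vehicle-treated control group.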

[1] = dose: 50.0 mg/kg/injection, schedule: Q01DX009 (ip), vehicle: saline with Tween-80
[2] = dose: 60.0 mg/kg/injection, schedule: Q01DX005 (ip), vehicle: saline with Tween-80
[3] = dose: 120.0 mg/kg/injection, schedule: Q01DX005 (ip), vehicle: saline with Tween-80
[4] = dose: 240.0 mg/kg/injection, schedule: Q01DX005 (ip), vehicle: saline with Tween-80
[5] = dose: 12.5 mg/kg/injection, schedule: Q01DX005 (ip), vehicle: saline with Tween-80
[6] = dose: 25.0 mg/kg/injection, schedule: Q01DX005 (ip), vehicle: saline with Tween-80
[7] = dose: 50.0 mg/kg/injection, schedule: Q01DX005 (ip), vehicle: saline with Tween-80
[8] = dose: 100.0 mg/kg/injection, schedule: Q01DX005 (ip), vehicle: saline with Tween-80
[9] = dose: 50.0 mg/kg/injection, schedule: Q01DX005 (ip), vehicle: saline
[10] = dose: 100.0 mg/kg/injection, schedule: Q01DX005 (ip), vehicle: saline
[11] = dose: 200.0 mg/kg/injection, schedule: Q01DX005 (ip), vehicle: saline
[12] = dose: 200.0 mg/kg/injection, schedule: Q01DX005 (ip), vehicle: saline with Tween-80
[13] = dose: 50.0 mg/kg/injection, schedule: Q01DX005 (ip), vehicle: Klucel (hydroxypropylcellulose) (HPC)
[14] = dose: 100.0 mg/kg/injection, schedule: Q01DX005 (ip), vehicle: Klucel (hydroxypropylcellulose) (HPC)
[15] = dose: 200.0 mg/kg/injection, schedule: Q01DX005 (ip), vehicle: Klucel (hydroxypropylcellulose) (HPC)
[16] = dose: 100.0 mg/kg/injection, schedule: Q04DX003 (ip), vehicle: saline with Tween-80
[17] = dose: 200.0 mg/kg/injection, schedule: Q04DX003 (ip), vehicle: saline with Tween-80
[18] = dose: 400.0 mg/kg/injection, schedule: Q04DX003 (ip), vehicle: saline with Tween-80
[19] = dose: 50.0 mg/kg/injection, schedule: Q04DX003 (ip), vehicle: saline with Tween-80
[20] = dose: 60.0 mg/kg/injection, schedule: Q01DX005 (ip), vehicle: Klucel (hydroxypropylcellulose) (HPC)
[21] = dose: 120.0 mg/kg/injection, schedule: Q01DX005 (ip), vehicle: Klucel (hydroxypropylcellulose) (HPC)

Measured: T/C

CC(NC(=O)C(Cc1c[nH]c2ccccc12)NC(=O)OC(C)(C)C)C(=O)NN (stereo not drawn) (Boc-Trp-Ala-NHNH2; configuration not given here)
inactive: dose: 12.5 mg/kg/injection, schedule: Q01DX009 (ip), vehicle: other 98 % of control | dose: 25.0 mg/kg/injection, schedule: Q01DX009 (ip), vehicle: other 100 % of control | dose: 50.0 mg/kg/injection, schedule: Q01DX009 (ip), vehicle: other 105 % of control | dose: 100.0 mg/kg/injection, schedule: Q01DX009 (ip), vehicle: other 109 % of control | dose: 200.0 mg/kg/injection, schedule: Q01DX009 (ip), vehicle: other 119 % of control

O=C1CCC([N+](=O)[O-])C(c2ccccc2)N1 (configuration not stated)
inactive: [1] 100 % of control

O=C(NCCCl)Nc1[nH]c(=O)ncc1Br
inactive: [2] 104 % of control | [3] 102 % of control | [4] 112 % of control

OCc1ccc2ccc3ccc(CO)nc3c2n1
inactive: [5] 97 % of control | [6] 111 % of control | [7] 104 % of control and 109 % of control | [8] 113 % of control

CC(=O)[O][Sn]([CH3])([CH3])[c]1ccccc1
inactive: dose: 1.56 mg/kg/injection, schedule: Q01DX009 (ip), vehicle: saline 98 % of control and 104 % of control | dose: 3.12 mg/kg/injection, schedule: Q01DX009 (ip), vehicle: saline 98 % of control and 110 % of control | dose: 6.25 mg/kg/injection, schedule: Q01DX009 (ip), vehicle: saline 98 % of control and 117 % of control and 96 % of control | dose: 12.5 mg/kg/injection, schedule: Q01DX009 (ip), vehicle: saline 104 % of control and 120 % of control

CCOC(=O)C(CC)c1ccccc1 (configuration not stated)
inactive: [1] 99 % of control | dose: 100.0 mg/kg/injection, schedule: Q01DX009 (ip), vehicle: saline with Tween-80 102 % of control | dose: 200.0 mg/kg/injection, schedule: Q01DX009 (ip), vehicle: saline with Tween-80 112 % of control

CC(CCO)CCC(Br)C(C)(C)Br (configuration not stated)
inactive: [9] 103 % of control | [10] 105 % of control | [11] 100 % of control

C/C(N=NC(=S)N1CCSCC1)=C1\C=CC=CN1O
inactive: [5] 97 % of control | [6] 100 % of control | [7] 107 % of control and 97 % of control | [12] 102 % of control

CC1(C)CC(=O)C(CSc2ccccc2)C(=O)C1
inactive: dose: 12.5 mg/kg/injection, schedule: Q01DX001 (ip), vehicle: saline 108 % of control | dose: 25.0 mg/kg/injection, schedule: Q01DX001 (ip), vehicle: Klucel (hydroxypropylcellulose) (HPC) 100 % of control | dose: 25.0 mg/kg/injection, schedule: Q01DX001 (ip), vehicle: saline 111 % of control | dose: 50.0 mg/kg/injection, schedule: Q01DX001 (ip), vehicle: Klucel (hydroxypropylcellulose) (HPC) 100 % of control and 105 % of control | dose: 50.0 mg/kg/injection, schedule: Q01DX001 (ip), vehicle: saline 112 % of control | dose: 100.0 mg/kg/injection, schedule: Q01DX001 (ip), vehicle: Klucel (hydroxypropylcellulose) (HPC) 100 % of control

CCCCCCc1cc(C(=O)NN)c2ccccc2n1
inactive: [13] 102 % of control | [14] 99 % of control | [15] 96 % of control

NC(=O)CC1(C(=O)O)c2ccccc2-c2ccccc21
inactive: [16] 97 % of control | [17] 97 % of control | [18] 108 % of control

CCN(CC)Cc1cc(Nc2c3ccc([N+](=O)[O-])cc3nc3ccc(OC)cc23)ccc1O
inactive: [9] 99 % of control | [10] 103 % of control | [11] 101 % of control

CC(=O)Nc1c(Cl)cc(Cl)c2c1Cc1cc(Cl)ccc1-2
inactive: [13] 88 % of control | [14] 94 % of control | [15] 112 % of control

CNc1nc2c(N)ncnc2n1C1OC(CO)C(O)C1O (configuration not stated)
inactive: dose: 6.25 mg/kg/injection, schedule: Q01DX009 (ip), vehicle: suspension in saline 94 % of control | dose: 12.5 mg/kg/injection, schedule: Q01DX009 (ip), vehicle: suspension in saline 112 % of control

NCCC(=O)NCCSSCCNC(=O)CCN
inactive: dose: 100.0 mg/kg/injection, schedule: Q04DX003 (ip), vehicle: saline 112 % of control | dose: 200.0 mg/kg/injection, schedule: Q04DX003 (ip), vehicle: saline 111 % of control

CCC(=O)c1c(O)cc(O)cc1O
inactive: [19] 103 % of control | [16] 103 % of control | [17] 102 % of control | [18] 103 % of control

COc1ccc(/C=C(\C(C)=O)C(=O)CCN(C)C)cc1
inactive: [9] 95 % of control | [10] 105 % of control | [11] 115 % of control

O=C1NN=C(C(O)c2ccccc2)C1(O)c1ccccc1 (configuration not stated)
inactive: [2] 91 % of control | dose: 100.0 mg/kg/injection, schedule: Q04DX002 (ip), vehicle: distilled water + alcohol 103 % of control | [3] 98 % of control | dose: 200.0 mg/kg/injection, schedule: Q04DX002 (ip), vehicle: distilled water + alcohol 98 % of control | [4] 93 % of control | dose: 400.0 mg/kg/injection, schedule: Q04DX002 (ip), vehicle: distilled water + alcohol 94 % of control

CN(C)CC(CN(C)C)C(=O)c1ccc(Oc2ccccc2)cc1
inactive: dose: 7.5 mg/kg/injection, schedule: Q01DX005 (ip), vehicle: saline 123 % of control | dose: 15.0 mg/kg/injection, schedule: Q01DX005 (ip), vehicle: saline 120 % of control

CCCCOC(=O)C(NC(N)=O)SC (configuration not stated)
inactive: [19] 95 % of control | [16] 100 % of control | [17] 99 % of control

CCOS(=O)(=O)c1ccc(C(=O)O)cc1
inactive: dose: 50.0 mg/kg/injection, schedule: Q01DX009 (ip), vehicle: saline 108 % of control | dose: 100.0 mg/kg/injection, schedule: Q01DX009 (ip), vehicle: saline 107 % of control | dose: 200.0 mg/kg/injection, schedule: Q01DX009 (ip), vehicle: saline 107 % of control

C[C@]12CC(=O)O[C@@H](C[C@H]1OC(=O)c1ccccc1)[C@@]21CO1
inactive: dose: 1.0 mg/kg/injection, schedule: Q04DX002 (ip), vehicle: distilled water + Tween-80 102 % of control | dose: 2.0 mg/kg/injection, schedule: Q04DX002 (ip), vehicle: distilled water + Tween-80 103 % of control | dose: 4.0 mg/kg/injection, schedule: Q04DX002 (ip), vehicle: distilled water + Tween-80 100 % of control | dose: 8.0 mg/kg/injection, schedule: Q04DX002 (ip), vehicle: distilled water + Tween-80 94 % of control | dose: 16.0 mg/kg/injection, schedule: Q04DX002 (ip), vehicle: distilled water + Tween-80 100 % of control

CCCCCCCCC1OCN2CC(CC)CCC12 (configuration not stated)
inactive: [9] 107 % of control | [10] 108 % of control | [11] 108 % of control

CN1C(=S)C2(C1c1ccccc1)C(C)(C)CCCC2(C)C (configuration not stated)
inactive: dose: 100.0 mg/kg/injection, schedule: Q01DX001 (ip), vehicle: saline with Tween-80 92 % of control | dose: 200.0 mg/kg/injection, schedule: Q01DX001 (ip), vehicle: saline with Tween-80 92 % of control | dose: 400.0 mg/kg/injection, schedule: Q01DX001 (ip), vehicle: saline with Tween-80 87 % of control

COC(=O)c1ccc(C(=O)OC)c2nc3cc(C)c(C)cc3nc12
inactive: [20] 96 % of control | [21] 98 % of control

CC1CC1(C1C=CCCC1)C1C=CCCC1 (configuration not stated)
inactive: [7] 100 % of control | [8] 100 % of control | [12] 108 % of control

Cc1oc2c(C)c3oc(=O)cc(C)c3cc2c1CN1C(=O)c2ccccc2C1=O
inactive: dose: 100.0 mg/kg/injection, schedule: Q05DX002 (ip), vehicle: saline with Tween-80 99 % of control | dose: 200.0 mg/kg/injection, schedule: Q05DX002 (ip), vehicle: saline with Tween-80 92 % of control | dose: 400.0 mg/kg/injection, schedule: Q05DX002 (ip), vehicle: saline with Tween-80 98 % of control

COC(=O)N1CCCc2ccc3c(OC)c(OC)cc(c3c2)CC1
inactive: [20] 100 % of control | [21] 100 % of control | dose: 240.0 mg/kg/injection, schedule: Q01DX005 (ip), vehicle: Klucel (hydroxypropylcellulose) (HPC) 88 % of control

From PubChem BioAssay AID330 (DTP/NCI, 2004)
